The text below walks through data of patent US11702404B2, “GLP-1R modulating compounds” (priority 2019, dated 2023).

One series concerns the target GLP-1R (Homo sapiens, UniProt P43220). Description: GLP-1R activation: cAMP increase in CHO cells stably expressing GLP-1R. Type of series: cell-based.
A short description of series [1]: Microsomal stability, human liver microsomes (predicted hepatic clearance). To be noted: predicted from in vitro microsomal stability data.
The mark [2] stands for this setting: cAMP increase, CHO cells stably expressing GLP-1R, 10 point dose response, 30 minutes incubation, read-out: EC50.

Structures are written as SMILES. Read-outs that look alike come from different tables or passages of the source.

As usually defined, the EC50 is the concentration needed to bring the measured effect to its halfway point.

Chain of GLP-1R (P43220 24-463): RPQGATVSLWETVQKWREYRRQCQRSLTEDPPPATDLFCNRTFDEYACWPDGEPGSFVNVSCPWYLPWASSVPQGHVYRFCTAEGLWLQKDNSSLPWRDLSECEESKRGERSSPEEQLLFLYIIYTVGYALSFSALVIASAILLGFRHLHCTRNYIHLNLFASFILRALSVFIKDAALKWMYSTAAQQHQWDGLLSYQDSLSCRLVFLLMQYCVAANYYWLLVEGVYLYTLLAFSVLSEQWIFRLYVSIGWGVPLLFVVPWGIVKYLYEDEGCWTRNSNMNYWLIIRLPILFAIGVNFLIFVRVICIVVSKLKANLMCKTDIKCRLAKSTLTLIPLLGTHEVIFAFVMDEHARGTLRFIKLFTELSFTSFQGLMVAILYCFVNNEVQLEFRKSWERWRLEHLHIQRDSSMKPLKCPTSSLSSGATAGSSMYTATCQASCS

With `N#Cc1ccc(COc2cccc(-c3ccc(Cc4nc5c(F)cc(C(=O)O)cc5n4Cc4ccon4)c(F)c3)n2)c(F)c1` [Example 585, 2-(4-(6-((4-cyano-2-fluorobenzyl)oxy)pyridin-2-yl)-2-fluorobenzyl)-4-fluoro-1-(isoxazol-3-ylmethyl)-1H-benzo[d]imidazole-6-carboxylic acid], on GLP-1R (setting [2]), the EC50 was 0.81 nM. For the same compound, the “Predicted Hepatic Clearance (Pred. Cl.)” value in series [1] is 2.33 mL/min/kg.

For `COC(C)(C)Cn1c(Cc2cc(F)c(-c3cccc(OCc4ccc(C#N)cc4F)n3)cc2F)nc2ccc(C(=O)O)cc21` [Example 586, 2-(4-(6-((4-cyano-2-fluorobenzyl)oxy)pyridin-2-yl)-2,5-difluorobenzyl)-1-(2-methoxy-2-methylpropyl)-1H-benzo[d]imidazole-6-carboxylic acid], the EC50 on GLP-1R (setting [2]) was determined as 0.54 nM. Besides, the “Predicted Hepatic Clearance (Pred. Cl.)” value in series [1] is 7.67 mL/min/kg.

Turning to `CO[C@@H](C)Cn1c(Cc2cc(F)c(-c3cccc(OCc4ccc(C#N)cc4F)n3)cc2F)nc2ccc(C(=O)O)cc21` [Example 587, (S)-2-(4-(6-((4-cyano-2-fluorobenzyl)oxy)pyridin-2-yl)-2,5-difluorobenzyl)-1-(2-methoxypropyl)-1H-benzo[d]imidazole-6-carboxylic acid], the EC50 at GLP-1R (setting [2]) was 2.15 nM. Moreover, the “Predicted Hepatic Clearance (Pred. Cl.)” value in series [1] was 6.83 mL/min/kg.

With `CO[C@H](C)Cn1c(Cc2cc(F)c(-c3cccc(OCc4ccc(C#N)cc4F)n3)cc2F)nc2ccc(C(=O)O)cc21` [Example 588, (R)-2-(4-(6-((4-cyano-2-fluorobenzyl)oxy)pyridin-2-yl)-2,5-difluorobenzyl)-1-(2-methoxypropyl)-1H-benzo[d]imidazole-6-carboxylic acid], the EC50 on GLP-1R (setting [2]) turned out to be 1.33 nM. Further, the “Predicted Hepatic Clearance (Pred. Cl.)” value in series [1] was 6.5 mL/min/kg.

Regarding `COC(=O)N1CCC[C@@H]1Cn1c(Cc2cc(F)c(-c3cccc(OCc4ccc(C#N)cc4F)n3)cc2F)nc2ccc(C(=O)O)cc21` [Example 589, (R)-2-(4-(6-((4-cyano-2-fluorobenzyl)oxy)pyridin-2-yl)-2,5-difluorobenzyl)-1-((1-(methoxycarbonyl)pyrrolidin-2-yl)methyl)-1H-benzo[d]imidazole-6-carboxylic acid], the EC50 on GLP-1R (read-out: EC50) amounted to 5.46 nM. For the same compound, the “Predicted Hepatic Clearance (Pred. Cl.)” value in series [1] was 8.17 mL/min/kg.

`CC(=O)N1CCC[C@@H]1Cn1c(Cc2cc(F)c(-c3cccc(OCc4ccc(C#N)cc4F)n3)cc2F)nc2ccc(C(=O)O)cc21` [Example 591, (R)-1-((1-acetylpyrrolidin-2-yl)methyl)-2-(4-(6-((4-cyano-2-fluorobenzyl)oxy)pyridin-2-yl)-2,5-difluorobenzyl)-1H-benzo[d]imidazole-6-carboxylic acid]: the EC50 at GLP-1R (read-out: EC50) was found to be 0.17 nM. Further, the “Predicted Hepatic Clearance (Pred. Cl.)” value in series [1] is 7 mL/min/kg.

Take `COCCn1c(Cc2ccc(-c3cccc(OCc4ncc(Cl)s4)n3)cc2F)nc2ccc(C(=O)O)cc21` [Example 592, 2-(4-(6-((5-chlorothiazol-2-yl)methoxy)pyridin-2-yl)-2-fluorobenzyl)-1-(2-methoxyethyl)-1H-benzo[d]imidazole-6-carboxylic acid]: the EC50 on GLP-1R (setting [2]) was 33.3 nM. Further, the “Predicted Hepatic Clearance (Pred. Cl.)” value in series [1] was 12 mL/min/kg.

On to `COCCn1c(Cc2ccc(-c3cccc(OCc4cnc(Cl)s4)n3)cc2F)nc2ccc(C(=O)O)cc21` [Example 593, 2-(4-(6-((2-chlorothiazol-5-yl)methoxy)pyridin-2-yl)-2-fluorobenzyl)-1-(2-methoxyethyl)-1H-benzo[d]imidazole-6-carboxylic acid], for which the EC50 at GLP-1R (setting [2]) is 145 nM. In addition, the “Predicted Hepatic Clearance (Pred. Cl.)” value in series [1] is 8.3 mL/min/kg.

As to `N#Cc1ccc(COc2cccc(-c3cc(F)c(Cc4nc5ccc(C(=O)O)cc5n4Cc4ccon4)c(F)c3)n2)c(F)c1` [Example 594, 2-(4-(6-((4-cyano-2-fluorobenzyl)oxy)pyridin-2-yl)-2,6-difluorobenzyl)-1-(isoxazol-3-ylmethyl)-1H-benzo[d]imidazole-6-carboxylic acid], the EC50 at GLP-1R (setting [2]) turned out to be 0.77 nM. For the same compound, the “Predicted Hepatic Clearance (Pred. Cl.)” value in series [1] was 4.33 mL/min/kg.

Consider `COCCn1c(Cc2ccc(-c3cccc(OCc4cccnc4[N+](=O)[O-])n3)cc2F)nc2ccc(C(=O)O)cc21` [Example 596, 2-(2-fluoro-4-(6-((2-nitropyridin-3-yl)methoxy)pyridin-2-yl)benzyl)-1-(2-methoxyethyl)-1H-benzo[d]imidazole-6-carboxylic acid], for which the EC50 at GLP-1R (setting [2]) is 816 nM. The “Predicted Hepatic Clearance (Pred. Cl.)” value in series [1] was 19.5 mL/min/kg.

For `N#CCC1(Cn2c(Cc3ccc(-c4ccc(F)c(OCc5ccc(C#N)cc5F)n4)cc3F)nc3c(F)cc(C(N)=O)cc32)CC1` [Example 597, 2-(4-(6-((4-cyano-2-fluorobenzyl)oxy)-5-fluoropyridin-2-yl)-2-fluorobenzyl)-1-((1-(cyanomethyl)cyclopropyl)methyl)-4-fluoro-1H-benzo[d]imidazole-6-carboxamide], the half-maximal effective concentration (EC50) at GLP-1R (setting [2]) turned out to be 13.8 nM. Further, the “Predicted Hepatic Clearance (Pred. Cl.)” value in series [1] was 9.83 mL/min/kg.

With `COc1cc(C#N)ccc1COc1cccc(-c2cc(F)c(Cc3nc4ccc(C(N)=O)cc4n3CC3(CC#N)CC3)cc2F)n1` [Example 598, 2-(4-(6-((4-cyano-2-methoxybenzyl)oxy)pyridin-2-yl)-2,5-difluorobenzyl)-1-((1-(cyanomethyl)cyclopropyl)methyl)-1H-benzo[d]imidazole-6-carboxamide], on GLP-1R (setting [2]), the EC50 stood at 0.28 nM. Moreover, the “Predicted Hepatic Clearance (Pred. Cl.)” value in series [1] is 19.2 mL/min/kg.

As for `N#CCC1(Cn2c(Cc3cc(F)c(-c4ccnc(OCc5ccc(C#N)cc5F)n4)cc3F)nc3ccc(C(N)=O)nc32)CC1` [Example 599, 2-(4-(2-((4-cyano-2-fluorobenzyl)oxy)pyrimidin-4-yl)-2,5-difluorobenzyl)-3-((1-(cyanomethyl)cyclopropyl)methyl)-3H-imidazo[4,5-b]pyridine-5-carboxamide], the EC50 at GLP-1R (setting [2]) worked out at 0.98 nM. For the same compound, in series [1], the “Predicted Hepatic Clearance (Pred. Cl.)” value is 12.3 mL/min/kg.

With `N#CCC1(Cn2c(Cc3ccc(-c4cccc(OCc5ccc(C#N)cc5F)n4)cc3F)nc3ccc(C(=O)O)nc32)CC1` [Example 600, 2-(4-(6-((4-cyano-2-fluorobenzyl)oxy)pyridin-2-yl)-2-fluorobenzyl)-3-((1-(cyanomethyl)cyclopropyl)methyl)-3H-imidazo[4,5-b]pyridine-5-carboxylic acid], at GLP-1R (setting [2]), the EC50 stood at 0.1 nM. Further, the “Predicted Hepatic Clearance (Pred. Cl.)” value in series [1] is 6.7 mL/min/kg.

Take `N#Cc1ccc(COc2cccc(-c3ccc(Cc4nc5ccc(C(=O)O)cc5n4Cc4ncco4)nc3)n2)c(F)c1` [Example 601, 2-((6-((4-cyano-2-fluorobenzyl)oxy)-[2,3′-bipyridin]-6′-yl)methyl)-1-(oxazol-2-ylmethyl)-1H-benzo[d]imidazole-6-carboxylic acid]: the EC50 at GLP-1R (setting [2]) was determined as 31.7 nM. Further, in series [1], the “Predicted Hepatic Clearance (Pred. Cl.)” value is 3.83 mL/min/kg.

Regarding `COCCn1c(Cc2cc(F)c(-c3cccc(OCc4ccc(Cl)cc4)n3)cc2F)nc2ccc(C(=O)O)cc21` [Example 602, 2-(4-(6-((4-chlorobenzyl)oxy)pyridin-2-yl)-2,5-difluorobenzyl)-1-(2-methoxyethyl)-1H-benzo[d]imidazole-6-carboxylic acid], the EC50 on GLP-1R (setting [2]) is 1.17 nM. The “Predicted Hepatic Clearance (Pred. Cl.)” value in series [1] is 2.83 mL/min/kg.

On GLP-1R (EC50 (nM)), `COCCn1c(Cc2cc(F)c(-c3cccc(OCc4ccc(C#N)c(F)c4)n3)cc2F)nc2ccc(C(=O)O)cc21` [Example 603, 2-(4-(6-((4-cyano-3-fluorobenzyl)oxy)pyridin-2-yl)-2,5-difluorobenzyl)-1-(2-methoxyethyl)-1H-benzo[d]imidazole-6-carboxylic acid] had an EC50 of 4.13 nM. The “Predicted Hepatic Clearance (Pred. Cl.)” value in series [1] is 2.83 mL/min/kg.

With `COCCn1c(Cc2cc(F)c(-c3cccc(OCc4ccc(C#N)cc4)n3)cc2F)nc2ccc(C(=O)O)cc21` [Example 604, 2-(4-(6-((4-cyanobenzyl)oxy)pyridin-2-yl)-2,5-difluorobenzyl)-1-(2-methoxyethyl)-1H-benzo[d]imidazole-6-carboxylic acid], at GLP-1R (setting [2]), the EC50 was 0.92 nM. Further, the “Predicted Hepatic Clearance (Pred. Cl.)” value in series [1] was 4.5 mL/min/kg.

For the compound `N#Cc1ccc(COc2cccc(-c3cc(F)c(Cc4nc5ccc(C(=O)O)cc5n4Cc4ncco4)cc3F)n2)c(F)c1` [Example 605, 2-(4-(6-((4-cyano-2-fluorobenzyl)oxy)pyridin-2-yl)-2,5-difluorobenzyl)-1-(oxazol-2-ylmethyl)-1H-benzo[d]imidazole-6-carboxylic acid], the EC50 on GLP-1R (setting [2]) was 1.57 nM. Moreover, in series [1], the “Predicted Hepatic Clearance (Pred. Cl.)” value was 5 mL/min/kg.

As for `Cc1cc(Cn2c(Cc3ccc(-c4cccc(OCc5ccc(C#N)cc5F)n4)cc3F)nc3ccc(C(=O)O)cc32)no1` [Example 606], the EC50 on GLP-1R (setting [2]) came out at 178 nM. In addition, in series [1], the “Predicted Hepatic Clearance (Pred. Cl.)” value was 1.83 mL/min/kg.

As for `Cn1ccnc1Cn1c(Cc2ccc(-c3cccc(OCc4ccc(C#N)cc4F)n3)cc2F)nc2ccc(C(=O)O)cc21` [Example 607], the EC50 on GLP-1R (setting [2]) came out at 108 nM. Moreover, in series [1], the “Predicted Hepatic Clearance (Pred. Cl.)” value was 3 mL/min/kg.

In the case of `O=C(O)c1ccc2nc(Cc3cc(F)c(-c4cccc(OCc5ccc(C(F)F)cc5F)n4)cc3F)n(Cc3ncco3)c2c1` [Example 608], on GLP-1R (setting [2]), the EC50 is 0.74 nM. The “Predicted Hepatic Clearance (Pred. Cl.)” value in series [1] was 1.83 mL/min/kg.

Regarding `O=C(O)c1ccc2nc(Cc3cc(F)c(-c4cccc(OCc5ccc(C(F)F)cc5F)n4)cc3F)n(Cc3ccon3)c2c1` [Example 609], the EC50 on GLP-1R (setting [2]) is 0.15 nM. Further, the “Predicted Hepatic Clearance (Pred. Cl.)” value in series [1] was 1.83 mL/min/kg.

On to `N#Cc1ccc(COc2cccc(-c3cc(F)c(Cc4nc5ccc(C(=O)O)cc5n4[C@H]4COC[C@H]4F)cc3F)n2)c(F)c1` [Example 611], for which the EC50 at GLP-1R (setting [2]) was 0.29 nM. The “Predicted Hepatic Clearance (Pred. Cl.)” value in series [1] was 4.83 mL/min/kg.

For the compound `N#Cc1ccc(COc2cccc(-c3cc(F)c(Cc4nc5ccc(C(=O)O)cc5n4C4COCC4(F)F)cc3F)n2)c(F)c1` (stereo not shown) [Example 612], the EC50 at GLP-1R (setting [2]) was found to be 0.22 nM. Also, the “Predicted Hepatic Clearance (Pred. Cl.)” value in series [1] was 3.83 mL/min/kg.

For `N#Cc1ccc(COc2cccc(-c3cc(F)c(Cc4nc5ccc(C(=O)O)cc5n4[C@H]4COC[C@H]4O)cc3F)n2)c(F)c1` [Example 613], the EC50 on GLP-1R (setting [2]) was determined as 0.54 nM. In series [1], the “Predicted Hepatic Clearance (Pred. Cl.)” value is 6.5 mL/min/kg.
